# Assays:
# [1] = target: T1, recombinant human FABP3 protein (FABP3-induced Aβ42 oligomerization) (Homo sapiens, UniProt P05413); assay: Western blot of Aβ42 oligomerization with recombinant FABP3 pre-incubated with artemisinin; format: biochemical; conditions: artemisinin 4 μM preincubated with FABP3 2.5 μM for four hours, then Aβ42 oligomers 2.5 μM 24 hours; 6E10 antibody, ImageJ; p<0.05
# T1 construct: purchased Cayman Chemical
# Description: Synthetic Aβ42 peptides (AnaSpec) were solubilized in hexafluoroisopropanol (HFIP), and then HFIP was allowed to be evaporated completely under nitrogen flow. Aβ42 peptides were resuspended using phosphate buffered saline (PBS) to […], and were incubated to assemble oligomers at room temperature for 24 hours prior to use. The oligomeric status of AP was verified by sodium dodecyl sulfate polyacrylamide gel electrophoresis (SDS-PAGE).
# Afterwards, the oligomerization of Aβ42 was analyzed using western blot analysis and detected with 6E10 antibody.
# [2] = tested on: SH-SY5Y cells transfected with human FABP3; assay: MTT cell viability assay, Aβ42 cytotoxicity in FABP3-transfected SH-SY5Y cells; format: cell-based; conditions: pcDNA3/FABP3 SH-SY5Y cells, artemisinin (0-4 μM) pretreatment four hours, Aβ42 2.5 μM 24 hours; increased from 65% without artemisinin; p<0.01
# Description: (§1) Human neuroblastoma SH-SY5Y cell line was obtained from American Type Culture Collection (ATCC® CRL-2266™) and maintained in Dulbecco's Modified Eagle Medium with nutrient mixture F-12 (DMEM/F12; Invitrogen) media supplemented with 10% FBS, 100 U/mL penicillin and 100 μg/mL streptomycin at 37° C. in a 5% CO2 humidified incubator.
# (§2) Human FAPB3 cDNA, which was reverse transcribed from the total RNA of SH-SY5Y cells, was amplified by polymerase chain reaction (PCR) using primers (5′-[…] and 5′-TGCCTCTTCTCATAAGTG) and then cloned into pcDNA™3.1D/V5-His-TOPO vector (Invitrogen). SH-SY5Y cells stably expressing human FABP3 were obtained using lipofectamine transfection with selection via cultivation in DMEM/F12 medium (Gibco) containing 500 µg/mL G418 (Sigma-Aldrich).
# Afterwards, purple formazan crystals formed by reduction of MTT in the mitochondria of living cells were dissolved in 100 μl solution containing 10% SDS and 0.01N HCl. The absorbance was measured at 570 nm with an ELISA reader (pQuant; BioTek Instruments, Inc).
# [3] = tested on: stably transfected human FABP3-SH-SY5Y cells; assay: Western blot of Aβ42 oligomerization in stably transfected human FABP3-SH-SY5Y cells; format: cell-based; conditions: artemisinin 4 μM pretreatment 4 hours, Aβ42 2.5 μM 24 hours
# Description: as §1
# as §2, with “5′-TGCCTCTrTCTCATAAGTG)” for “5′-TGCCTCTTCTCATAAGTG)”, “μg/mL” for “µg/mL”
# Then, the stably transfected human FABP3-SH-SY5Y cells were washed with PBS and lysed with radioimmunoprecipitation (RIPA) buffer supplemented with cOmplete™ Protease Inhibitor Cocktail (Sigma-Aldrich). The samples with equal amounts of total protein (50 μg) were fractionated by SDS-PAGE and electrotransferred to a polyvinylidene difluoride (PVDF) membrane (Millipore). The membrane was blocked for one hour at room temperature with 10% nonfat milk in TBST buffer (20 mM Tris-HCl, 150 mM NaCl, and 0.1% Tween 20); thereafter, the membrane was incubated with 6E10 (BioLegend), FABP3 (Santa Cruz) or GAPDH (Santa Cruz) antibodies. […]
# [4] = tested on: 3×Tg AD transgenic mice; assay: Morris water maze test; format: in vivo; conditions: 3×Tg AD mice, artemisinin 1 mg/kg i.p. every other day from 12 to 36 weeks of age, tested at 36 weeks; p<0.05
# Description: In the present embodiment, 3×Tg AD transgenic mice were obtained from the Jackson Laboratory (004807), and wild-type C57BL/6 mice were purchased from the National Laboratory Animal Center. The body weights of the animals were measured every eight weeks from 12th to 36th week-old. The animals were i.p. administered with pure water or artemisinin (1 mg/kg) every other day from 12 weeks to 36 weeks of age; the WT-W group was water vehicle-treated wild-type mice; the AD-W group was water vehicle-treated 3×Tg AD transgenic mice; and AD-R group was artemisinin-treated 3×Tg AD transgenic mice. The animals were examined by using behavioral tasks, including Morris water maze test, spontaneous alternation behavior Y-maze test, and novel object recognition task test, when they were 36-week-old. To evaluate whether artemisinin ameliorates the spatial learning and memory deficits, the Morris water maze test was performed. […] After the last trail, mice were subjected to the probe test that the platform was removed, and the time spent in quadrants was recorded by a computer-controlled system.
# [5] = tested on: 3×Tg AD transgenic mice; assay: Spontaneous alternation behavior Y-maze test; format: in vivo; conditions: 3×Tg AD mice, artemisinin 1 mg/kg i.p. every other day from 12 to 36 weeks of age, tested at 36 weeks
# Description: In the present embodiment, 3×Tg AD transgenic mice were obtained from the Jackson Laboratory (004807), and wild-type C57BL/6 mice were purchased from the National Laboratory Animal Center. The body weights of the animals were measured every eight weeks from 12th to 36th week-old. The animals were i.p. administered with pure water or artemisinin (1 mg/kg) every other day from 12 weeks to 36 weeks of age; the WT-W group was water vehicle-treated wild-type mice; the AD-W group was water vehicle-treated 3×Tg AD transgenic mice; and AD-R group was artemisinin-treated 3×Tg AD transgenic mice. The animals were examined by using behavioral tasks, including Morris water maze test, spontaneous alternation behavior Y-maze test, and novel object recognition task test, when they were 36-week-old. The spontaneous alternation behavior Y-maze test was used to estimate short-term memory. The Y-maze was a three-arm maze (30 cm long and 5 cm wide with 12 cm in height) with equal angles and the arms were labeled A, B, and C. The 36-week-old mice (n=6 per group) administered with aforementioned treatment were initially placed within one arm, and the number of arm entries and the number of alternations were recorded for eight min period for each mouse. […] The percentage of alternation was calculated by the following equation: Alternation (%)=[(Number of alternation)/(Total arm entries−2)]×100.
# [6] = tested on: 3×Tg AD transgenic mice; assay: Novel object recognition test; format: in vivo; conditions: 3×Tg AD mice, artemisinin 1 mg/kg i.p. every other day from 12 to 36 weeks of age, versus untreated 3×Tg AD mice; p<0.05
# Description: In the present embodiment, 3×Tg AD transgenic mice were obtained from the Jackson Laboratory (004807), and wild-type C57BL/6 mice were purchased from the National Laboratory Animal Center. The body weights of the animals were measured every eight weeks from 12th to 36th week-old. The animals were i.p. administered with pure water or artemisinin (1 mg/kg) every other day from 12 weeks to 36 weeks of age; the WT-W group was water vehicle-treated wild-type mice; the AD-W group was water vehicle-treated 3×Tg AD transgenic mice; and AD-R group was artemisinin-treated 3×Tg AD transgenic mice. The animals were examined by using behavioral tasks, including Morris water maze test, spontaneous alternation behavior Y-maze test, and novel object recognition task test, when they were 36-week-old. The novel object recognition was conducted to examine whether artemisinin can restore recognition memory, which involves the frontal cortex, entorhinal cortex and hippocampus; it was used to evaluate the inborn tendency of the rodents to explore novel objects rather than familiar ones. During the first two days, mice were habituated to open field (50×40 cm, with 22 cm in height) for two sessions of 10 min each day in order to be familiar with the apparatus. […] The discrimination index was calculated as percentage ratio of TB/(TA+TB)×100. […]
# T1 sequence (P05413 whole entry): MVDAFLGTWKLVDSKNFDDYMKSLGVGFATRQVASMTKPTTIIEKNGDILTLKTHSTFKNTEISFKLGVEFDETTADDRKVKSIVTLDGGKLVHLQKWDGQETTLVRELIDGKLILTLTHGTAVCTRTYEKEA
structure (smiles),measurement,setting,value
C[C@@H]1CC[C@H]2[C@@H](C)C(=O)O[C@@H]3O[C@@]4(C)CC[C@@H]1[C@]32OO4 [artemisinin],decrease of Aβ42 tetramer induced by FABP3,[1],156%
same,decrease of Aβ42 trimer induced by FABP3,[1],144%
same,cell viability,[2],85%
same,decrease of Aβ42 tetramer induced by FABP3 overexpression,[3],87%
same,decrease of Aβ42 trimer induced by FABP3 overexpression,[3],78%
same,time in finding the hidden platform,[4],significantly less time
same,spatial working memory (spontaneous alternation rate),[5],restored spatial working memory to the extent similar as that of the wild-type group
same,increment in the discrimination index,[6],56%

# — patent US20190201376A1, “Method for Treating or Preventing Fatty Acid Binding Protein 3 Induced B-amyloid Aggregation Diseases” (NATIONAL TAIWAN NORMAL UNIVERSITY, priority 2017, published 2019)
